Experimental findings from patent US8324264B1, “Inhibitors of bacterial biofilms and related methods” (Sequoia Sciences, Inc., priority 2011, dated 2012) are described below.

SMILES strings stand for the structures. In brackets after ≈: the same amount, converted by molar mass. Like-named read-outs stand apart in the source and are kept apart here.

For one assay, the system named is E. coli biofilms. The assay can be described thus: Biofilm growth assay (spreading biofilm on semi-solid agar), E. coli. The following applies: biofilm growth assay, overnight 37° C., vs negative controls, Tables 1-5; for IC85: Escherichia coli, read-out: E. coli: concentration that reduces the area of the spreading biofilm by greater than or equal to 85%. It is filed as cell-based. From the text: (§1) “Biofilm Growth Assay” refers to an assay performed on semi-solid agar surface where the bacteria collectively move out from an inoculation point. To those skilled in the art, the act of bacteria collectively moving out from an inoculation point on a semi-solid surface may be referred to as swarming or a spreading biofilm. (Anderson, et al Microbiology, 2003, 149, 37-46; Daniels, et al. FEMS Microbiology Reviews, 2004, 28, 261-289). The procedure to perform this assay is described in detail in the Examples. This type of surface motility by bacteria has been reported in the literature by those skilled in the art. […] These references are incorporated herein by reference in their entirety.
(§2) The biofilm growth assay was carried out to measure swarming or biofilm spreading on semi-solid agar media in round plates (for example, 100×15 mm), also referred to as Petri dishes. For E. coli, the plates contained LB medium with 0.6% agar and 0.5% glucose. P. aeruginosa plates were made with M8 agar supplemented with 0.2% glucose, 100 μM CaCl2, 1 mM MgSO4, and 0.5% Casamino acids. The agar plates of this assay consisted of 0.4% to 0.7% agar (Bacto or Noble agar), although other media may also be used as described in the literature and known to those skilled in the art. Test compounds at the desired concentration were added to the cooled, autoclaved media. Portions of the media were then poured into the plates (20 mL/plate), and the plates allowed to dry at room temperature for approximately 3 to 4 hours. Alternatively, however, plates may be dried in a laminar flow hood for approximately fifteen to twenty minutes. Overnight cultures were grown in a 37° C. shaker in LB (E. coli) or TSB (P. aeruginosa). Plates were inoculated by placing 5 μL of the appropriate overnight culture in the centers of the plates. The plates then were incubated overnight at 37° C. The area of the zone of spreading bacteria was then measured and replicates are averaged. Percent inhibition was calculated as 100×(area without compound−area with compound)/(area without compound). An active compound was considered that which reduces the area of the spreading biofilm compared to negative controls by greater than or equal to 85%. The values shown in Table 1 are the concentrations of compounds (μg/ml) tested in the biofilm growth assay that reduce the area of the spreading biofilm compared to negative controls by greater than or equal to 85% unless noted differently in Table 1. A > (“greater than” symbol) as used in Table 1 is well understood to those skilled in the art as an indication that the listed concentration was not effective at this concentration.
(§3) All of the compounds shown in Tables 2, 3, 4, and 5, below, were prepared semi-synthetically from oleanolic acid, except for Compounds 2 and 3. Compound 2 was prepared from ursolic acid. Compound 3 was prepared from hederagenin, but could also be prepared from an oleanolic acid analog with a hydroxyl at C23 or C24. These compounds were tested in the spreading biofilm assay according to the methods detailed in Example I, above. The values shown in Tables 2, 3, 4, and 5 are the concentrations of compounds tested in the biofilm growth assay that reduce the area of the spreading biofilm compared to negative controls by greater than or equal to 85%.

For a further assay, the system named is P. aeruginosa biofilms. The assay can be described thus: Biofilm growth assay (spreading biofilm on semi-solid agar), P. aeruginosa. It is filed as cell-based. The following applies: for IC85: Pseudomonas aeruginosa, read-out: P. aeruginosa: concentration that reduces the area of the spreading biofilm by greater than or equal to 85%.
Text: as §1, §2, §3

Where [1] appears, read: biofilm growth assay, overnight 37° C., vs negative controls, Tables 1-5.

`CC1(C)CC[C@]2(C(=O)O)CC[C@]3(C)C(=C(c4ccc(N5CCCC5)nc4)CC4[C@@]5(C)Cc6c(n[nH]c6N)C(C)(C)C5CC[C@]43C)C2C1` (stereo partly drawn) [Example 45, (4aS,6aS,6bR,13aR)-12-Amino-2,2,6a,6b,9,9,13a-heptamethyl-15-(6-(pyrrolidin-1-yl)pyridin-3-yl)-2,3,4,4a,5,6,6a,6b,7,8,8a,9,11,13,13a,13b,14,15b-octadecahydro-1H-chryseno[1,2-f]indazole-4-a-carboxylic acid]: the “E. coli: concentration that reduces the area of the spreading biofilm by greater than or equal to 85%” value in the assay with E. coli biofilms is 1 µg/mL. In the assay on P. aeruginosa biofilms (setting [1]), the “P. aeruginosa: concentration that reduces the area of the spreading biofilm by greater than or equal to 85%” value was 0.5 µg/mL.

As for `CC1(C)CC[C@]2(C(=O)Nc3cc(O)[nH]n3)CC[C@]3(C)C(=CCC4[C@@]5(C)Cc6c(n[nH]c6N)C(C)(C)C5CC[C@]43C)C2C1` (stereo partly drawn) [Compound 66, (4aS,6aS,6bR,13aR)-12-Amino-N-(5-hydroxy-1H-pyrazol-3-yl)-2,2,6a,6b,9,9,13a-heptamethyl-2,3,4,4a,5,6,6a,6b,7,8,8a,9,11,13,13a,13b,14,15b-octadecahydro-1H-chryseno[1,2-f]indazole-4-a-carboxamide], the IC85 in the assay with E. coli biofilms came out at 1 µg/mL (≈ 1.74 µM); in the assay with P. aeruginosa biofilms (setting [1]) it was 0.25 µg/mL (≈ 0.435 µM).

In the case of `C[C@@H]1CC[C@]2(C(=O)O)CC[C@]3(C)C(=CCC4[C@@]5(C)C[C@H](CO)[C@H](O)C(C)(C)C5CC[C@]43C)C2[C@H]1C` (some centres unmarked) [B], the “E. coli: concentration that reduces the area of the spreading biofilm by greater than or equal to 85%” value in the assay on E. coli biofilms amounted to 8 µg/mL. For the same compound, the “P. aeruginosa: concentration that reduces the area of the spreading biofilm by greater than or equal to 85%” value with P. aeruginosa biofilms (setting [1]) worked out at 4 µg/mL.

`CN(C)c1[nH]nc2c1C[C@@]1(C)C(CC[C@]3(C)C1CC=C1C4CC(C)(C)CC[C@]4(C(=O)O)CC[C@]13C)C2(C)C` (some centres unmarked) [J]: the IC85 in the assay with E. coli biofilms and with P. aeruginosa biofilms (setting [1]) was greater than 16 µg/mL each time.

Regarding `CC1(C)CC[C@]2(C(=O)O)CC[C@]3(C)C(=C(c4cccc5cnccc45)CC4[C@@]5(C)Cc6c(n[nH]c6N)C(C)(C)C5CC[C@]43C)C2C1` (stereo partly drawn) [Example 46, (4aS,6aS,6bR,13aR)-12-Amino-15-(isoquinolin-5-yl)-2,2,6a,6b,9,9,13a-heptamethyl-2,3,4,4a,5,6,6a,6b,7,8,8a,9,11,13,13a,13b,14,15b-octadecahydro-1H-chryseno[1,2-f]indazole-4-a-carboxylic acid], the “E. coli: concentration that reduces the area of the spreading biofilm by greater than or equal to 85%” value in the assay with E. coli biofilms amounted to 1 µg/mL. Moreover, the “P. aeruginosa: concentration that reduces the area of the spreading biofilm by greater than or equal to 85%” value in the assay with P. aeruginosa biofilms (setting [1]) is 0.5 µg/mL.

For `CC1(C)CC[C@]2(C(=O)O)CC[C@]3(C)C(=C(c4c[nH]cc4CN4CCOCC4)CC4[C@@]5(C)Cc6c(n[nH]c6N)C(C)(C)[C@@H]5CC[C@]43C)[C@@H]2C1` (stereo partly drawn) [Example 33, (4aS,6aS,6bR,8aR,13aR,15bS)-12-Amino-2,2,6a,6b,9,9,13a-heptamethyl-15-(4-(morpholinomethyl)-1H-pyrrol-3-yl)-2,3,4,4a,5,6,6a,6b,7,8,8a,9,11,13,13a,13b,14,15b-octadecahydro-1H-chryseno[1,2-f]indazole-4-a-carboxylic acid], the “E. coli: concentration that reduces the area of the spreading biofilm by greater than or equal to 85%” value with E. coli biofilms came to 4 µg/mL. Moreover, the “P. aeruginosa: concentration that reduces the area of the spreading biofilm by greater than or equal to 85%” value with P. aeruginosa biofilms (setting [1]) was 2 µg/mL.

In the case of `CC1(C)CC[C@]2(CN)CC[C@]3(C)C(=CCC4[C@@]5(C)Cc6c(n[nH]c6N)C(C)(C)C5CC[C@]43C)C2C1` (stereo partly drawn) [Compound 63, (4aS,6aS,6bR,13aR)-4-a-(Aminomethyl)-2,2,6a,6b,9,9,13a-heptamethyl-2,3,4,4a,5,6,6a,6b,7,8,8a,9,11,13,13a,13b,14,15b-octadecahydro-1H-chryseno[1,2-f]indazol-12-amine], the IC85 is 1 µg/mL (≈ 2.09 µM) in the assay on E. coli biofilms and 4 µg/mL (≈ 8.35 µM) with P. aeruginosa biofilms (setting [1]).

As for `CC1=C2[C@@H]3CC(C)(C)CC[C@]3(C(=O)O)CC[C@@]2(C)[C@]2(C)CC[C@H]3C(C)(C)c4n[nH]c(N)c4C[C@]3(C)C2C1` (stereo partly drawn) [Example 4, (4aS,6aS,6bR,8aR,13aR,15bS)-12-Amino-2,2,6a,6b,9,9,13a,15-octamethyl-2,3,4,4a,5,6,6a,6b,7,8,8a,9,11,13,13a,13b,14,15b-octadecahydro-1H-chryseno[1,2-f]indazole-4-a-carboxylic acid], the IC85 in the assay on E. coli biofilms is 1 µg/mL (≈ 1.97 µM); in the assay on P. aeruginosa biofilms (setting [1]), 0.25 µg/mL (≈ 0.492 µM).

Regarding `C[C@H]1[C@H](C)CC[C@]2(C(=O)O)CC[C@]3(C)C(=CC[C@@H]4[C@@]5(C)CC[C@H](O)C(C)(C)[C@@H]5CC[C@]43C)[C@H]12` [Ursolic acid, ursolic acid, reference compound], the IC85 in the assay with E. coli biofilms and with P. aeruginosa biofilms (setting [1]) was 8 µg/mL (≈ 17.5 µM) each time.

In the case of `CC1(C)CC[C@]2(C(=O)O)CC[C@]3(C)C(=CC[C@@H]4[C@@]5(C)C[C@@H](O)[C@H](O)C(C)(C)[C@@H]5CC[C@]43C)[C@@H]2C1` [Maslinic acid, reference compound], in the assay with P. aeruginosa biofilms, the IC85 turned out to be 4 µg/mL (≈ 8.46 µM).

`CC1(C)CC[C@]2(C(=O)O)CC[C@]3(C)C(=C(c4cccc(C(N)=O)c4)CC4[C@@]5(C)Cc6c(n[nH]c6N)C(C)(C)C5CC[C@]43C)C2C1` (stereo partly drawn) [Example 19, (4aS,6aS,6bR,13aR)-12-Amino-15-(3-carbamoylphenyl)-2,2,6a,6b,9,9,13a-heptamethyl-2,3,4,4a,5,6,6a,6b,7,8,8a,9,11,13,13a,13b,14,15b-octadecahydro-1H-chryseno[1,2-f]indazole-4-a-carboxylic acid]: the “E. coli: concentration that reduces the area of the spreading biofilm by greater than or equal to 85%” value with E. coli biofilms was determined as 1 µg/mL. For the same compound, in the assay with P. aeruginosa biofilms (setting [1]), the “P. aeruginosa: concentration that reduces the area of the spreading biofilm by greater than or equal to 85%” value stood at 1 µg/mL.

For the compound `CC1(C)CC[C@]2(C(=O)Nc3nnc(S)s3)CC[C@]3(C)C(=CCC4[C@@]5(C)Cc6c(n[nH]c6N)C(C)(C)C5CC[C@]43C)C2C1` (stereo partly drawn) [Compound 74, (4aS,6aS,6bR,13aR)-12-Amino-N-(5-mercapto-1,3,4-thiadiazol-2-yl)-2,2,6a,6b,9,9,13a-heptamethyl-2,3,4,4a,5,6,6a,6b,7,8,8a,9,11,13,13a,13b,14,15b-octadecahydro-1H-chryseno[1,2-f]indazole-4-a-carboxamide], the results for the IC85 with E. coli biofilms and in the assay on P. aeruginosa biofilms (setting [1]) were greater than 2 µg/mL and 1 µg/mL (≈ 1.64 µM), respectively.

For `CC1(C)CC[C@]2(c3nnco3)CC[C@]3(C)C(=CCC4[C@@]5(C)Cc6c(n[nH]c6N)C(C)(C)C5CC[C@]43C)C2C1` (stereo partly drawn) [Compound 67, (4aS,6aS,6bR,13aR)-2,2,6a,6b,9,9,13a-Heptamethyl-4-a-(1,3,4-oxadiazol-2-yl)-2,3,4,4a,5,6,6a,6b,7,8,8a,9,11,13,13a,13b,14,15b-octadecahydro-1H-chryseno[1,2-f]indazol-12-amine], the “E. coli: concentration that reduces the area of the spreading biofilm by greater than or equal to 85%” value with E. coli biofilms is 2 µg/mL. Besides, the “P. aeruginosa: concentration that reduces the area of the spreading biofilm by greater than or equal to 85%” value in the assay on P. aeruginosa biofilms (setting [1]) was determined as 1 µg/mL.

As for `C[C@@H]1CC[C@]2(C)CC[C@]3(C)C(=CCC4[C@@]5(C)CC[C@H](O)C(C)(C)C5CC[C@]43C)C2[C@H]1C` (stereo partly drawn) [alpha-Amyrin, reference compound], the IC85 in the assay on P. aeruginosa biofilms (setting [1]) is greater than 32 µg/mL.

For the compound `CC1(C)CC[C@]2(c3n[nH]c(O)c3CCO)CC[C@]3(C)C(=CCC4[C@@]5(C)Cc6c(n[nH]c6N)C(C)(C)C5CC[C@]43C)C2C1` (stereo partly drawn) [Compound 81, 3-((4aS,6aS,6bR,13aR)-12-Amino-2,2,6a,6b,9,9,13a-heptamethyl-2,3,4,4a,5,6,6a,6b,7,8,8a,9,11,13,13a,13b,14,15b-octadecahydro-1H-chryseno[1,2-f]indazol-4-a-yl)-4-(2-hydroxyethyl)-1H-pyrazol-5-ol], the “E. coli: concentration that reduces the area of the spreading biofilm by greater than or equal to 85%” value in the assay with E. coli biofilms is 1 µg/mL. Besides, the “P. aeruginosa: concentration that reduces the area of the spreading biofilm by greater than or equal to 85%” value in the assay on P. aeruginosa biofilms (setting [1]) was 0.5 µg/mL.

For the compound `C[C@H]1[C@H](C)CC[C@]2(C(=O)O)CC[C@]3(C)C(=CC[C@@H]4[C@@]5(C)C[C@@H](O)[C@H](O)C(C)(C)[C@@H]5CC[C@]43C)[C@H]12` [Corosolic acid, reference compound], the IC85 with P. aeruginosa biofilms (setting [1]) worked out at 4 µg/mL (≈ 8.46 µM).
